# From US10101331B2, “Methods of evaluating patients using E-cadherin or vimentin” (AGIOS PHARMACEUTICALS, INC, priority 2012, dated 2018)
# “Also recorded” adds a separate entry of the source.
# Tests used:
# Type in all cases: cell-based
# DMS-153 = assay: Lung cancer cell line panel screened for sensitivity to BPTES, 72 hr proliferation assay; settings: DMS-153 cell line
# Text: (§1) Of these, 44 of the cell lines have been classified as non-small cell lung cancer (NSCLC). […] Four of the top 25 transcriptional/cellular pathways were related to the epithelial-mesenchymal transition (EMT) (ranks 1, 15, 23, 25 of FIG. 2). […] Low E-cadherin/high vimentin are well-defined markers of cells that have a mesenchymal phenotype as characterized for example, in any one of the following references: (Yauch et al., (2005) Cin Cancer Res 11:24; Savagner et al., (2010) Ann Oncol. 21(suppl 7): vii89; Thiery et al., (2002) Nature Reviews Cancer June vol 2:442).
# NCI-H2405 = assay: as above
# Text: as §1
# NCI-H1436 = assay: as above
# Text: as §1
# NCI-H446 = assay: as above
# Text: as §1
# NCI-H358 = assay: as above
# Text: as §1
# CALU-6 = assay: as above; settings: CALU-6 cell line
# Text: as §1
# NCI-H2170 = assay: as above
# Text: as §1
# NCI-H596 = assay: as above
# Text: as §1
# NCI-H2009 = assay: as above
# Text: as §1
# NCI-H1734 = assay: as above
# Text: as §1
# NCI-H1373 = assay: as above
# Text: as §1
# NCI-H2171 = assay: as above
# Text: as §1
# NCI-H460 = assay: as above
# Text: as §1
# NCI-H1437 = assay: as above
# Text: as §1
# SW-1573 = assay: as above
# Text: as §1
# NCI-H748 = assay: as above
# Text: as §1
# NCI-H2107 = assay: as above
# Text: as §1
# NCI-H524 = assay: as above
# Text: as §1
# NCI-H1838 = assay: as above
# Text: as §1
# NCI-H1993 = assay: as above
# Text: as §1
# NCI-H1618 = assay: as above
# Text: as §1
# NCI-H520 = assay: as above
# Text: as §1
# NCI-H522 = assay: as above
# Text: as §1
# COR-L23 = assay: as above
# Text: as §1
# SW900 = assay: as above
# Text: as §1
# CAKI-1 = assay: 72 hr proliferation assay using CellTiter-Glo in 96-well format; settings: 72 hr treatment
# Text: (§2) FIGS. 8A-8C depict the GLS1 dependence in selected cancer cell lines. FIG. 8A depicts a western blot analysis of GLS1 and GLS2 protein levels in indicated cell lines. KGA and GAC alternative splice variants are indicated.
# (§3) Proc of the National Academy of Sciences 109, 1092 (2012); McBryant Supra; DeLaBarre, Supra). […] This loop differs in primary sequence between GLS1 and GLS2, thereby explaining the differential response of the two isoforms.
# A427 = assay: as above; settings: 72 hr treatment
# Text: as §2, §3
# HCT116 = assay: as above; settings: 72 hr treatment
# Text: as §2, §3
# PC3 = assay: as above; settings: 72 hr treatment
# Text: as §2, §3
# MDA-MB-231 = assay: as above; settings: 72 hr treatment
# Text: as §2, §3
# SKBR3 = assay: as above; settings: 72 hr treatment
# Text: as §2, §3
# HepG2 = assay: as above; settings: 72 hr treatment
# Text: as §2, §3
# HUH7 = assay: as above; settings: 72 hr treatment
# Text: as §2, §3
# MDA-MB-231 cells = assay: 72 hr proliferation assay in lines stably expressing empty vector, GAC or GAC-BR
# Protocol: MDA-MB-231 cell lines stably expressing empty vector control (Con), wild-type GAC (GAC), or a BPTES-resistant GAC enzyme (GAC-BR) were treated with indicated concentrations of drugs in a 72 hr proliferation assay. […] Calculated p-values from student t-test, * (3×10^−5), **(7×10^−10), ^#(3×10^−5), ^##(5×10^−7).
# Levels of overexpression of the GAC WT and GAC-BR mutant were approximately 1.5-2.0 fold above endogenous GLS1 levels (FIG. 12).
smiles,measurement,setting,value
O=C(Cc1ccccc1)Nc1nnc(CCSCCc2nnc(NC(=O)Cc3ccccc3)s2)s1 [BPTES],μ/μmax,DMS-153,0.58
same,μ/μmax,NCI-H2405,0.92
same,μ/μmax,NCI-H1436,0.68
same,μ/μmax,NCI-H446,0.84
same,sensitivity to BPTES,NCI-H358; NCI-H358,relatively BPTES insensitive
same,Max Inh @ 10 uM (%),"NCI-H358; NCI-H358, 10 uM",27%
same,Mu/max @10 uM,"NCI-H358; NCI-H358, 10 uM",0.66
same,μ/μmax @10 uM,"NCI-H358; NCI-H358, 10 uM",0.66
same,μ/μmax,NCI-H358; NCI-H358 cell line,0.66
same,μ/μmax,CALU-6,0.82
same,μ/μmax,NCI-H2170,0.82
same,Max Inh @ 10 uM (%),"NCI-H596; NCI-H596, 10 uM",13%
same,Mu/max @10 uM,"NCI-H596; NCI-H596, 10 uM",0.84
same,μ/μmax @10 uM,"NCI-H596; NCI-H596, 10 uM",0.84
same,μ/μmax,NCI-H596; NCI-H596 cell line,0.84
same,μ/μmax,NCI-H2009,0.96
same,μ/μmax,NCI-H1734,−0.12
same,μ/μmax,NCI-H1373,0.79
same,μ/μmax,NCI-H2171,0.88
same,Max Inh @ 10 uM (%),"NCI-H460; NCI-H460, 10 uM",18%
same,Mu/max @10 uM,"NCI-H460; NCI-H460, 10 uM",0.92
same,μ/μmax @10 uM,"NCI-H460; NCI-H460, 10 uM",0.92
same,μ/μmax,NCI-H460; NCI-H460 cell line,0.92
same,Max Inh @ 10 uM (%),"NCI-H1437; NCI-H1437, 10 uM",27%
same,Mu/max @10 uM,"NCI-H1437; NCI-H1437, 10 uM",0.81
same,μ/μmax @10 uM,"NCI-H1437; NCI-H1437, 10 uM",0.81
same,μ/μmax,NCI-H1437; NCI-H1437 cell line,0.81
same,Max Inh @ 10 uM (%),"SW-1573; SW-1573, 10 uM",68%
same,Mu/max @10 uM,"SW-1573; SW-1573, 10 uM",0.12
same,μ/μmax @10 uM,"SW-1573; SW-1573, 10 uM",0.12
same,μ/μmax,SW-1573; SW-1573 cell line,0.12
same,μ/μmax,NCI-H748,0.76
same,μ/μmax,NCI-H2107,0.79
same,μ/μmax,NCI-H524,0.53
same,μ/μmax,NCI-H1838,0.63
same,μ/μmax,NCI-H1993,0.89
same,μ/μmax,NCI-H1618,0.53
same,Max Inh @ 10 uM (%),"NCI-H520; NCI-H520, 10 uM",14%
same,Mu/max @10 uM,"NCI-H520; NCI-H520, 10 uM",0.79
same,μ/μmax @10 uM,"NCI-H520; NCI-H520, 10 uM",0.79
same,μ/μmax,NCI-H520; NCI-H520 cell line,0.79
same,Max Inh @ 10 uM (%),"NCI-H522; NCI-H522, 10 uM",39%
same,Mu/max @10 uM,"NCI-H522; NCI-H522, 10 uM",0.61
same,μ/μmax @10 uM,"NCI-H522; NCI-H522, 10 uM",0.61
same,μ/μmax,NCI-H522; NCI-H522 cell line,0.61
same,μ/μmax,COR-L23,0.96
same,μ/μmax,SW900,0.70
same,sensitivity to BPTES treatment,CAKI-1,modest sensitivity
same,response to BPTES treatment,A427,Maximum response
same,response to the compound,HCT116,minimal response
same,response to the compound,PC3,minimal response
same,sensitivity to BPTES treatment,MDA-MB-231,modest sensitivity
same,response to BPTES treatment,SKBR3,minimum effect; also recorded: minimal response
same,sensitivity to BPTES treatment,HepG2,modest sensitivity
same,response to the compound,HUH7,minimal response
same,sensitivity to BPTES,MDA-MB-231 cells; MDA-MB-231 cells expressing empty vector or GAC-WT,retained significant sensitivity
same,sensitivity to BPTES,MDA-MB-231 cells; MDA-MB-231 cells with stable overexpression of the GAC-BR mutant,rendered resistant
